{"source": "patent US5567710A", "about": "“Polycyclic fused ring modulators of acetylcholine receptors” (SIBIA Neurosciences, Inc., priority 1994, dated 1996)", "key": {"[1]": {"biological_target": "acetylcholine receptor (rat cerebral membranes)", "assay_type": "binding", "details": "3H-QNB displacement"}, "[2]": {"biological_target": "T1, acetylcholine receptor (rat cerebral membranes) (Rattus norvegicus, UniProt P09483+P12390)", "T1 construct": "Synaptic membranes were prepared by homogenizing the cortical tissue; from tissue; host or cells: cerebral cortex synaptic membranes of male Sprague-Dawley rats", "T1 sequence (P09483 31-630)": "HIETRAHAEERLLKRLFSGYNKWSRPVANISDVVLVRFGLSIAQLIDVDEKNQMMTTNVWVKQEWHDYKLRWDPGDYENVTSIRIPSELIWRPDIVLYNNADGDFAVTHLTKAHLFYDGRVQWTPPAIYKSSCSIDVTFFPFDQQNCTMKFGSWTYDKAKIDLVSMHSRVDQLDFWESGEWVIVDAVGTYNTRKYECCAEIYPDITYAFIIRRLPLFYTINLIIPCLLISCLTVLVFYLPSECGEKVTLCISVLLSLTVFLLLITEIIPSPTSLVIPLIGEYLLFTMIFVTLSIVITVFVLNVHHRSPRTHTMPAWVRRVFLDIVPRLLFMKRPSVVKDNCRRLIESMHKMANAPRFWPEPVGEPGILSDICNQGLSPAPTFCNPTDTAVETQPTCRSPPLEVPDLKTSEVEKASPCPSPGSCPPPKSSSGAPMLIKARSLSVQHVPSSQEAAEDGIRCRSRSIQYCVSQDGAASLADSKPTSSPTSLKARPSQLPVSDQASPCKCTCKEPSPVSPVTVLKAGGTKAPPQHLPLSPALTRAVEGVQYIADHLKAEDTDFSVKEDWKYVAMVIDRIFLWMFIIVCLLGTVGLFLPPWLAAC", "T1 sequence (P12390 25-500)": "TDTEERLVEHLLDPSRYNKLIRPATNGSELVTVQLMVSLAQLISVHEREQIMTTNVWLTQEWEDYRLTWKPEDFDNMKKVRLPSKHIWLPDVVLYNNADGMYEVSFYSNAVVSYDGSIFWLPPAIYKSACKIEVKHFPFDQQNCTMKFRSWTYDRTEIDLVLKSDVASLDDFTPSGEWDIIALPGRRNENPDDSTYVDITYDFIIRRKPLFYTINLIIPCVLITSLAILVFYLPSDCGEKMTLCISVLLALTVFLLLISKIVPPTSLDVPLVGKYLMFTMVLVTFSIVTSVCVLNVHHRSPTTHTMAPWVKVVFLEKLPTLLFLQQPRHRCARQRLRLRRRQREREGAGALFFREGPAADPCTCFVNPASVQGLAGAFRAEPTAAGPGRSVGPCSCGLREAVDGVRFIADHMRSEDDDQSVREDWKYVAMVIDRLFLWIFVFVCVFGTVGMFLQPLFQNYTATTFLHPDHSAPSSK", "assay": "3H-cyt (cytisine) displacement from rat cerebral membranes", "assay_type": "binding", "details": "3H-cyt displacement"}, "[3]": {"biological_target": "T1, acetylcholine receptor (rat cerebral membranes)", "assay": "3H-nicotine displacement from rat cerebral membranes", "assay_type": "binding", "details": "3H-nicotine (1.9 nM) displacement, atropine 3 μM"}, "[4]": {"biological_target": "T1, acetylcholine receptor (rat cerebral membranes)", "assay": "3H-MCC (methylcarbamylcholine) displacement from rat cerebral membranes", "assay_type": "binding", "details": "3H-MCC displacement"}, "rat striatal slices": {"tested_on": "rat striatal slices", "assay_type": "cell-based", "method": "(§1) Measurement of ^3 H-dopamine release from rat striatal slices was performed according to the method of Sacaan et al. (J. Neurochem. 59:245 (1992)). Male Sprague-Dawley rats (250-300 g) were decapitated and the striata dissected quickly on a cold glass surface. The tissue was chopped to a thickness of 300 μm with a McIlwain tissue chopper. After chopping again at right angles the tissue was dispersed and incubated for 10 min. at 37° C. in oxygenated Kreb's buffer. ^3 H-Dopamine (40 Ci/mmol, NEN-Dupont, Boston, Mass.) was added (50 nM) and the tissue was incubated for 30 min. in Kreb's buffer containing 10 μM pargyline and 0.5 mM ascorbic acid. Aliquots of the minced tissue were then transferred to chambers of a Brandel Superfusion system in which the tissue was supported on Whatman GF/B filter discs. The tissue was then superfused with buffer at a constant flow rate of 0.3 ml/min. by means of a Brandel peristaltic pump. The perfusate was collected in plastic scintillation vials in 3-min. fractions, and the radioactivity was estimated by scintillation spectrophotometry. The superfusate for the first 120 min. was discarded. After two baseline fractions had been collected, the superfusion buffer was switched to fresh buffer with or without compound of interest. At the end of the experiment the filter and the tissue were removed, and the ^3 H-dopamine content was estimated after extraction into scintillation fluid. The fractional efflux of tritium was estimated as the amount of radioactivity in the perfusate fraction relative to the total amount in the tissue.\n(§2) The results of studies of the effects of an invention compound (as compared to the effect of nicotine and cytisine) on the release of neurotransmitters from rat brain slices are presented in Table II. The results presented in the Table are expressed as the percent fractional release."}, "rat hippocampus slices": {"tested_on": "rat hippocampus slices", "assay_type": "cell-based", "method": "as §1\n(§3) Following essentially the same procedure as set forth in the preceding paragraph, the amount of ^3 H-norepinephrine released from rat hippocampus and thalamus slices superfused with buffer containing (or lacking) compounds of interest was also measured.\nas §2"}, "rat thalamus slices": {"tested_on": "rat thalamus slices", "assay_type": "cell-based", "method": "as §1, §3, §2"}, "[5]": {"tested_on": "rats with unilateral 6-hydroxydopamine lesions of the nigro-striatal dopamine pathway", "assay_type": "in vivo, rat", "method": "The effects of invention compounds on turning behavior of rats with unilateral 6-hydroxydopamine lesions in the striatum were evaluated using the procedure of Ungerstedt and Arbutknott Brain Res. 24:485-493 (1970). Rats were injected with desmethylimipramine (25 mg/kg i.p.) and pargyline (75 mg/kg i.p.) approximately 30 minutes prior to 6-hydroxydopamine infusion into the substantia nigra. Results reported in the Table are measured as the maximal rotation per 15-min interval toward the lesioned side of the striatum."}, "[6]": {"tested_on": "haloperidol-induced catalepsy in rats", "assay": "Haloperidol-induced catalepsy model in rats", "assay_type": "in vivo, rat", "details": "s.c.; for Reduction in catalepsy (maximum): haloperidol 2 mg/kg i.p., vs haloperidol alone"}, "tail flick in rats": {"tested_on": "tail flick in rats", "assay_type": "in vivo, rat", "method": "The effects of invention compounds on latency in the time between stimulus application and tail flick in rats were evaluated using the procedure of D'Amour and Smith, J. Pharmacol. Exp. Ther. 72:74-79 (1941). Male rats (150-200g; Harlan, San Diego, Calif.) were acclimated to investigator's handling by taking two-to-three tail-flick latencies. The animals were held by hand such that the tail is placed in the groove of the Tail-Flick meter (IITC Life Sciences, Woodland Hill, Calif., Model 33). The light was focused 3-4 cm from the tip of the tail by a foot-operated switch. The intensity of the incident beam was adjusted to give baseline latencies in the range of 1-4 seconds. Groups of 5-6 rates were used in each treatment. The tail-flick latencies were recorded to the nearest 0.1 seconds and a cut-off time of 10 seconds was established to prevent thermal injury. The results of one such study are shown in Table V. Results presented in the Table are expressed as the percent of the maximum latency to remove the tail from the light beam. Maximum latency is 10 seconds."}}, "note": "Read-outs that look alike come from different tables or passages of the source."}
{"compound": "COc1cc2c(cn1)C1C(CC2)CCN1C", "note": "(centres unmarked)", "values": [{"measurement": "IC50", "setting": "[1]", "result": 9, "unit": "µM"}, {"measurement": "IC50", "setting": "[2]", "result": 27.5, "unit": "µM"}, {"measurement": "IC50", "setting": "[3]", "result": 10.7, "unit": "µM"}, {"measurement": "IC50", "setting": "[4]", "result": 5.5, "unit": "µM"}]}
{"compound": "c1cc2c(cn1)C1NCCC1CO2", "note": "(centres unmarked)", "values": [{"measurement": "IC50", "setting": "[2]", "result": 2, "unit": "µM"}, {"measurement": "IC50", "setting": "[3]", "result": 0.51, "unit": "µM"}, {"measurement": "IC50", "setting": "[4]", "result": 0.61, "unit": "µM"}]}
{"compound": "COc1cc2c(cn1)C1NCCC1CC2", "note": "(centres unmarked)", "values": [{"measurement": "IC50", "setting": "[1]", "result": 6, "unit": "µM"}, {"measurement": "IC50", "setting": "[2]", "result": 5.4, "unit": "µM"}, {"measurement": "IC50", "setting": "[3]", "result": 1.9, "unit": "µM"}, {"measurement": "IC50", "setting": "[4]", "result": 0.8, "unit": "µM"}, {"measurement": "3H-dopamine striatum, percent fractional release", "setting": "rat striatal slices; 300 μM", "result": 2.2, "unit": "%"}, {"measurement": "Release of catecholamines from rat brain slices (in words)", "setting": "rat striatal slices; striatum (dopamine), hippocampus and thalamus (norepinephrine)", "result": "selectively induces release of catecholamines in different brain regions"}, {"measurement": "3H-norepinephrine hippocampus, percent fractional release", "setting": "rat hippocampus slices; 300 μM", "result": 0.69, "unit": "%"}, {"measurement": "3H-norepinephrine thalamus, percent fractional release", "setting": "rat thalamus slices; 300 μM", "result": 2.2, "unit": "%"}, {"measurement": "Range of activity (maximal rotation per 15-min interval toward the lesioned side of the striatum)", "setting": "[5]; 10 mg/kg, s.c.", "result": "9-50 rotation per 15-min interval"}, {"measurement": "Turning towards the 6-hydroxydopamine-lesioned side (in words)", "setting": "[5]; 10 mg/kg, s.c.", "result": "induces turning towards the 6-hydroxydopamine-lesioned side of the rat striatum"}, {"measurement": "Cataleptogenic effect of haloperidol in rats (in words)", "setting": "[6]; 3 mg/kg", "result": "reduces the cataleptogenic effect of haloperidol in rats"}, {"measurement": "Reduction in catalepsy (maximum)", "setting": "[6]; 3 mg/kg", "result": 34, "unit": "%"}, {"measurement": "Duration of effect", "setting": "tail flick in rats; 30 mg/kg, p.o.", "result": "> 180", "unit": "min"}, {"measurement": "Latency between application of stimulus and tail-flick response (in words)", "setting": "tail flick in rats; 30 mg/kg, p.o., as compared to nicotine", "result": "increased the latency period, as compared to nicotine"}, {"measurement": "% maximum possible effect", "setting": "tail flick in rats; 30 mg/kg, p.o., maximum latency 10 seconds", "result": 52, "unit": "%"}, {"measurement": "Duration of effect versus morphine (in words)", "setting": "tail flick in rats; rat, in vivo", "result": "longer duration than the effect of morphine"}]}
{"compound": "CC(N)Cc1ccccc1", "note": "(centres unmarked) [AMPHETAMINE, reference compound]", "values": [{"measurement": "Range of activity (maximal rotation per 15-min interval toward the lesioned side of the striatum)", "setting": "[5]; 5 mg/kg, s.c.", "result": "50-200 rotation per 15-min interval"}]}
{"compound": "O=c1cccc2n1C[C@@H]1CNC[C@H]2C1", "note": "[CYTISINE, cytisine]", "values": [{"measurement": "3H-dopamine striatum, percent fractional release", "setting": "rat striatal slices; 100 μM", "result": 0.96, "unit": "%"}, {"measurement": "3H-norepinephrine hippocampus, percent fractional release", "setting": "rat hippocampus slices; 100 μM", "result": 4.3, "unit": "%"}, {"measurement": "3H-norepinephrine thalamus, percent fractional release", "setting": "rat thalamus slices; 100 μM", "result": 2.9, "unit": "%"}]}
{"compound": "CN1CC[C@]23c4c5ccc(O)c4O[C@H]2[C@@H](O)C=C[C@H]3[C@H]1C5", "note": "[Morphine, reference compound]", "values": [{"measurement": "% maximum possible effect", "setting": "tail flick in rats; 2 mg/kg, s.c., maximum latency 10 seconds", "result": 100, "unit": "%"}]}
{"compound": "CN1CCCC1c1cccnc1", "note": "(centres unmarked) [NICOTINE, nicotine, reference compound]", "values": [{"measurement": "3H-dopamine striatum, percent fractional release", "setting": "rat striatal slices", "result": 1.80}, {"measurement": "3H-norepinephrine hippocampus, percent fractional release", "setting": "rat hippocampus slices", "result": 4.1}, {"measurement": "3H-norepinephrine thalamus, percent fractional release", "setting": "rat thalamus slices", "result": 2.9}, {"measurement": "Range of activity (maximal rotation per 15-min interval toward the lesioned side of the striatum)", "setting": "[5]; rat, in vivo", "result": "6-50"}, {"measurement": "Reduction in catalepsy (maximum)", "setting": "[6]; 2 mg/kg", "result": 21, "unit": "%"}, {"measurement": "% maximum possible effect", "setting": "tail flick in rats; rat, in vivo", "result": 38, "unit": "%"}, {"measurement": "Duration of effect", "setting": "tail flick in rats; rat, in vivo", "result": 60, "unit": "min"}]}
